Experiments:
TNFa [1] = assay: TNFa ELISA, PBMC, Resiquimod (R848) stimulated; type: cell-based; conditions: 10 pt curve
TNFa [2] = assay: TNFa ELISA, dendritic cells, Gardiquimod stimulated; type: cell-based; conditions: Homo sapiens, Dendritic cell, 10 pt curve
IRAK4 = target: T1, IRAK4 (Homo sapiens, UniProt Q9NWZ3); assay: IRAK4 ADP-Glo assay; type: biochemical; conditions: 8 pt curve; read-out: IRAK4 ADP-Glo Kinase, 8 pt
T1 construct: purchased Signalchem I12-10G-20
T1 sequence (Q9NWZ3 1-460): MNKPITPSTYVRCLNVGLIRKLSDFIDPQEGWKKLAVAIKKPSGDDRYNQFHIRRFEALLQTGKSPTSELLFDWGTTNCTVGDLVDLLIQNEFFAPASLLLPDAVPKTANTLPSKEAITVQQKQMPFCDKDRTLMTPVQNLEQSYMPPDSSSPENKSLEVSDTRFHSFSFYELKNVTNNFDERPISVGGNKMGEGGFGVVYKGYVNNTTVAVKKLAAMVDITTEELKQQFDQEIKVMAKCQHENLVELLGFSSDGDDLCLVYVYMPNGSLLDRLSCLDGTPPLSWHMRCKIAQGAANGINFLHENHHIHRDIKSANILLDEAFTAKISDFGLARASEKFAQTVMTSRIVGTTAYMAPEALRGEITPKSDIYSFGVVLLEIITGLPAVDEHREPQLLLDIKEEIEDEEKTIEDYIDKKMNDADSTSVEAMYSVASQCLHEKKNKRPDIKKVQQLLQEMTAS
Procedure: IRAK4 Kinase Enzyme (Signalchem, I12-10G-20); 0.1M DTT (Signalchem, D86-09B); MBP Substrate (Signalchem, M42-51N); ADP Glo (Promega, V9101); 1M MgCl2 (Teknova, M03304); 1M Tris-HCl pH7.4 (Teknova, T1074); BSA (Sigma (A3059); Distilled H2O
Wallac Victor2 1420 Multilabel Counter
The ADP-Glo™ reagents were thawed at ambient temperature. The Kinase Detection Reagent was prepared by mixing kinase detection buffer with the lyophilized kinase detection substrate, and set aside.
A stock volume of 5× Reaction Kinase Buffer was made with a final concentration of 100 mM MgCl2, 200 mM Tris-HCl, and 0.5 mg/ml of BSA, in distilled H2O with a final pH7.4. A 2× working stock volume of Reaction Kinase Buffer was made containing a final concentration of […].
The components of IRAK4 Enzyme were thawed on ice. Diluted IRAK4 in 1× Kinase Reaction Buffer (diluted from 2× buffer) was prepared at […]. A […] working stock ATP Assay Solution was prepared in 1× Kinase Reaction Buffer (diluted from 2× buffer).
The compound was diluted in DMSO from 250 µM in 4-fold series dilutions for 8 points. Then diluted 1:5 in 2× Reaction Buffer in a 96 well plate. 1.01 was transferred to a 384 well plate in duplicate. […] 1 μl of 1 mg/ml stock solution of MBP substrate was added NOTE: MBP can be combined with ATP mix with equal volume and then added at 2 d/well. Final reaction volume was 5 μl.
The plate was centrifuged and the reaction mixture was incubated at room temperature for 60 minutes or at 30° C. for 30 minutes.
The reaction was terminated and the remaining ATP was depleted by adding 5 μl of ADP-Glo™ Reagent. The 384-well plate was centrifuged and then the reaction mixture was incubated for another 40 minutes at ambient temperature.
10 μl of the Kinase Detection Reagent was added. The plate was centrifuged and then the reaction mixture was incubated for another 30 minutes at ambient temperature.
The 384-well reaction plate was read using the WALLAC plate reader (Luminescence 0.1s).

IRAK1 = IRAK1 (Homo sapiens, UniProt P51617); assay: IRAK1 ADP-Glo Kinase assay; type: biochemical; conditions: 8 pt curve
IRAK1, sequence (P51617 whole entry): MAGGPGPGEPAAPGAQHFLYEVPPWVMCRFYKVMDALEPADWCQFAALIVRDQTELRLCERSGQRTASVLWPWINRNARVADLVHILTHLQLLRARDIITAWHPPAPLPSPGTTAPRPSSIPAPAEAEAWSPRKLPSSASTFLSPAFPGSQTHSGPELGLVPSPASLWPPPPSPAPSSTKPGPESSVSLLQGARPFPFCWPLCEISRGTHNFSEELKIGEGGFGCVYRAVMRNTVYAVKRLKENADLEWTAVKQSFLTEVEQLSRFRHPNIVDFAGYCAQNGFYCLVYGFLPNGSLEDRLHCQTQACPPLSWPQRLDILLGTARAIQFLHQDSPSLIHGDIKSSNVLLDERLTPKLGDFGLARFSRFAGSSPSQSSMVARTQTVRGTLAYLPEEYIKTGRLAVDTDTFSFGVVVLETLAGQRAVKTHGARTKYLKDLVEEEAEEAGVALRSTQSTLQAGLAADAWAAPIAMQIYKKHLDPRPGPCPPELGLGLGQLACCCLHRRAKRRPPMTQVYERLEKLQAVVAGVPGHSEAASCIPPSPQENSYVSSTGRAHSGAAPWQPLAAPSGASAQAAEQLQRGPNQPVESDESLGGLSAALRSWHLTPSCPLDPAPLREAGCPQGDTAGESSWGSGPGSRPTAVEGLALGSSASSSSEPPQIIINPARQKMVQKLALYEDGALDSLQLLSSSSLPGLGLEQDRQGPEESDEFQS

SMILES | EC50 (TNFa [1]) | EC50 (TNFa [2]) | IC50 (IRAK4) | IC50 (IRAK1)
O=C1CC[C@@H](COc2nccc3cc4c(=O)[nH]ccc4cc23)N1 [I-5, (S)-6-((5-oxopyrrolidin-2-yl)methoxy)pyrido[3,4-g]isoquinolin-1(2H)-one] | 4390 nM | 5680 nM | 160 nM | –
C=CCc1c[nH]c(=O)c2cc3ccnc(OC[C@@H]4CCC(=O)N4)c3cc12 [I-9, (S)-4-allyl-6-((5-oxopyrrolidin-2-yl)methoxy)pyrido[3,4-g]isoquinolin-1(2H)-one] | 376 nM | 419 nM | 14.5 nM | 6.86 µM
CCCc1c[nH]c(=O)c2cc3ccnc(OC[C@@H]4CCC(=O)N4)c3cc12 [I-10, (S)-6-((5-oxopyrrolidin-2-yl)methoxy)-4-propylpyrido[3,4-g]isoquinolin-1(2H)-one] | 369 nM | 613 nM | 74.2 nM | 11.1 µM
O=C1CC[C@@H](COc2nccc3cc4c(=O)[nH]cc(CC(F)(F)F)c4cc23)N1 [I-19, (S)-6-((5-oxopyrrolidin-2-yl)methoxy)-4-(2,2,2-trifluoroethyl)pyrido[3,4-g]isoquinolin-1(2H)-one] | 208 nM | 177 nM | 105 nM | 14.8 µM
CC(C)(N)c1c[nH]c(=O)c2cc3ccnc(OC[C@@H]4CCC(=O)N4)c3cc12 [I-26, (S)-4-(2-aminopropan-2-yl)-6-((5-oxopyrrolidin-2-yl)methoxy)pyrido[3,4-g]isoquinolin-1(2H)-one] | 1780 nM | – | 5350 nM | –
O=C1CC[C@@H](COc2nccc3cc4c(=O)[nH]cc(-c5cn[nH]c5)c4cc23)N1 [I-33, (S)-6-((5-oxopyrrolidin-2-yl)methoxy)-4-(1H-pyrazol-4-yl)pyrido[3,4-g]isoquinolin-1(2H)-one] | – | 25600 nM | 28 nM | 3.01 µM
C#CC(C)(O)c1c[nH]c(=O)c2cc3ccnc(OC[C@@H]4CCC(=O)N4)c3cc12 (stereo partly drawn) [I-37, 4-(2-hydroxybut-3-yn-2-yl)-6-(((S)-5-oxopyrrolidin-2-yl)methoxy)pyrido[3,4-g]isoquinolin-1(2H)-one] | – | 44000 nM | 1210 nM | 11 µM
NC(=O)Cc1c[nH]c(=O)c2cc3ccnc(OC[C@@H]4CCC(=O)N4)c3cc12 [I-41, (S)-2-(1-oxo-6-((5-oxopyrrolidin-2-yl)methoxy)-1,2-dihydropyrido[3,4-g]isoquinolin-4-yl)acetamide] | – | – | 2540 nM | –
CC[C@@H]1[C@H](F)C(=O)N[C@@H]1COc1nccc2cc3c(=O)[nH]cc(I)c3cc12 [I-44, 6-(((2S,3S,4S)-3-ethyl-4-fluoro-5-oxopyrrolidin-2-yl)methoxy)-4-iodopyrido[3,4-g]isoquinolin-1(2H)-one] | 5.2 nM | 2 nM | 4.2 nM | 0.0277 µM
CC[C@@H]1[C@H](F)C(=O)N[C@@H]1COc1nccc2cc3c(=O)[nH]cc(C)c3cc12 [I-45, 6-(((2S,3S,4S)-3-ethyl-4-fluoro-5-oxopyrrolidin-2-yl)methoxy)-4-methylpyrido[3,4-g]isoquinolin-1(2H)-one] | 2.7 nM | 3.4 nM | 5.5 nM | 0.018 µM
CC[C@@H]1[C@H](F)C(=O)N[C@@H]1COc1nccc2cc3c(=O)[nH]ccc3cc12 [I-46, 6-(((2S,3S,4S)-3-ethyl-4-fluoro-5-oxopyrrolidin-2-yl)methoxy)pyrido[3,4-g]isoquinolin-1(2H)-one] | 295 nM | 239 nM | 6.5 nM | 1.12 µM
CS(=O)(=O)c1c[nH]c(=O)c2cc3ccnc(OC[C@@H]4CCC(=O)N4)c3cc12 [I-48, (S)-4-(methylsulfonyl)-6-((5-oxopyrrolidin-2-yl)methoxy)pyrido[3,4-g]isoquinolin-1(2H)-one] | 10100 nM | – | 13800 nM | –
CC(C)(O)C#Cc1c[nH]c(=O)c2cc3ccnc(OC[C@@H]4CCC(=O)N4)c3cc12 [I-49, (S)-4-(3-hydroxy-3-methylbut-1-yn-1-yl)-6-((5-oxopyrrolidin-2-yl)methoxy)pyrido[3,4-g]isoquinolin-1(2H)-one] | 1440 nM | – | – | –
CC(C)Cc1c[nH]c(=O)c2cc3ccnc(OC[C@@H]4CCC(=O)N4)c3cc12 [I-50, (S)-4-isobutyl-6-((5-oxopyrrolidin-2-yl)methoxy)pyrido[3,4-g]isoquinolin-1(2H)-one] | – | – | 2190 nM | –
CC[C@@H]1[C@H](F)C(=O)N[C@@H]1COc1nccc2cc3c(=O)[nH]cc(C(C)C)c3cc12 [I-51, 6-(((2S,3S,4S)-3-ethyl-4-fluoro-5-oxopyrrolidin-2-yl)methoxy)-4-isopropylpyrido[3,4-g]isoquinolin-1(2H)-one] | 4 nM | – | 10 nM | 0.0774 µM

More lines, now with the values ahead:

EC50 (TNFa [1]) | EC50 (TNFa [2]) | IC50 (IRAK4) | IC50 (IRAK1) | SMILES
32.2 nM | 45.8 nM | 3.1 nM | – | O=C1CC[C@@H](COc2nccc3cc4c(=O)[nH]cc(I)c4cc23)N1 [I-6, (S)-4-iodo-6-((5-oxopyrrolidin-2-yl)methoxy)pyrido[3,4-g]isoquinolin-1(2H)-one]
192 nM | 215 nM | 4.8 nM | 4.28 µM | C=Cc1c[nH]c(=O)c2cc3ccnc(OC[C@@H]4CCC(=O)N4)c3cc12 [I-7, (S)-6-((5-oxopyrrolidin-2-yl)methoxy)-4-vinylpyrido[3,4-g]isoquinolin-1(2H)-one]
112 nM | 148 nM | 8.5 nM | 7.23 µM | CCc1c[nH]c(=O)c2cc3ccnc(OC[C@@H]4CCC(=O)N4)c3cc12 [I-8, (S)-4-ethyl-6-((5-oxopyrrolidin-2-yl)methoxy)pyrido[3,4-g]isoquinolin-1(2H)-one]
75 nM | – | 7.8 nM | 6.49 µM | C=C(C)c1c[nH]c(=O)c2cc3ccnc(OC[C@@H]4CCC(=O)N4)c3cc12 [I-11, (S)-6-((5-oxopyrrolidin-2-yl)methoxy)-4-(prop-1-en-2-yl)pyrido[3,4-g]isoquinolin-1(2H)-one]
203 nM | 11700 nM | 39.6 nM | 7.86 µM | O=C1CC[C@@H](COc2nccc3cc4c(=O)[nH]cc(C5CCC5)c4cc23)N1 [I-12, (S)-4-cyclobutyl-6-((5-oxopyrrolidin-2-yl)methoxy)pyrido[3,4-g]isoquinolin-1(2H)-one]
1660 nM | – | 22.2 nM | 10.3 µM | N#Cc1c[nH]c(=O)c2cc3ccnc(OC[C@@H]4CCC(=O)N4)c3cc12 [I-16, (S)-1-oxo-6-((5-oxopyrrolidin-2-yl)methoxy)-1,2-dihydropyrido[3,4-g]isoquinoline-4-carbonitrile]
337 nM | 358 nM | 14.4 nM | 12 µM | C#Cc1c[nH]c(=O)c2cc3ccnc(OC[C@@H]4CCC(=O)N4)c3cc12 [I-18, (S)-4-ethynyl-6-((5-oxopyrrolidin-2-yl)methoxy)pyrido[3,4-g]isoquinolin-1(2H)-one]
– | – | 2400 nM | – | O=C1CC[C@@H](COc2nccc3cc4c(=O)[nH]cc(C5CNC5)c4cc23)N1 [I-23, (S)-4-(azetidin-3-yl)-6-((5-oxopyrrolidin-2-yl)methoxy)pyrido[3,4-g]isoquinolin-1(2H)-one]
– | – | 988 nM | – | NC(=O)c1c[nH]c(=O)c2cc3ccnc(OC[C@@H]4CCC(=O)N4)c3cc12 [I-27, (S)-1-oxo-6-((5-oxopyrrolidin-2-yl)methoxy)-1,2-dihydropyrido[3,4-g]isoquinoline-4-carboxamide]
5650 nM | – | 27.3 nM | – | CC(=O)c1c[nH]c(=O)c2cc3ccnc(OC[C@@H]4CCC(=O)N4)c3cc12 [I-28, (S)-4-acetyl-6-((5-oxopyrrolidin-2-yl)methoxy)pyrido[3,4-g]isoquinolin-1(2H)-one]
1030 nM | 63800 nM | 62.7 nM | 11.3 µM | CC(O)c1c[nH]c(=O)c2cc3ccnc(OC[C@@H]4CCC(=O)N4)c3cc12 (stereo partly drawn) [I-36, 4-(1-hydroxyethyl)-6-(((S)-5-oxopyrrolidin-2-yl)methoxy)pyrido[3,4-g]isoquinolin-1(2H)-one]

Source: patent US12459941B2, “Tricyclic IRAK inhibitors” (Rigel Pharmaceuticals, Inc., priority 2022, dated 2025)
